Assay results from PMC5369532, “NMR-filtered virtual screening leads to non-metal chelating metallo-β-lactamase inhibitors” (Chemical Science, 2016).

Assays:
NDM-1 = biological target: T1, NDM-1 (Klebsiella pneumoniae, UniProt C7C422); experiment: NDM-1 inhibition, selectivity profile (FC5 substrate); type: biochemical; details: Fig. 4
T1 construct: made in house; host or cells: Escherichia coli
Experimental: (§1) Except where noted, recombinant forms of NDM-1, VIM-2, SPM-1, IMP-1, and BcII MBLs were produced in Escherichia coli and assays were carried out as described previously10. The IC50 values of all the compounds for VIM-2 were determined using […]
(§2) the FC-5 based assay10. […]
(§3) concentrations (0 μM, 1 μM, and 100 μM, see Fig. S8). The selectivity profiles of compounds of interest against other B1 MBLs including VIM-511, VIM-110, NDM-1, SPM-1, and BcII, and TEM-112 (class A SBL) were determined using the same method as described above. The inhibitory activities of these compounds against CphA (B2 […]
(§4) Enzymea Categorya [E]b, (nM) Substrate [Substrate], (μM) […]
(§5) CphA Class B2 MBL 2.5 Meropenem 125 […]
(§6) TEM-1 Class A SBL 2.5 FC5 5 a MBL: Metallo β-lactamase; SBL: serine β-lactamase; VIM, Verona Integron–encoded MBL; IMP, Imipenemase; NDM, New Delhi MBL; TEM-1: Temomeira-type 1 […]
(§7) b The enzyme concentrations of the purified proteins were determined by measuring Abs@280nm using a NanoDrop (ThermoFisher) spectrometer and calculated molar extinction coefficient for each sample; concentrations of diluted solutions used in the assay were calculated from the original concentration. […]
(§8) negative controls. These were tested in same assay conditions but at 2mM instead of 100uM compound concentration.

SPM-1 = SPM-1 (Pseudomonas aeruginosa, UniProt Q8G9Q0); experiment: SPM-1 inhibition, selectivity profile (FC5 substrate); type: biochemical; details: Fig. 4
Experimental: as §1, §2, §3, §4, §5, §6, §7, §8

BcII = biological target: T2, BcII (Bacillus cereus, UniProt P04190); experiment: BcII inhibition, selectivity profile (FC5 substrate); type: biochemical; details: Fig. 4
T2 construct: made in house; host or cells: Escherichia coli
Experimental: as §1, §2, §3, §4, §5, §6, §7, §8

CphA = CphA (Aeromonas hydrophila, UniProt P26918); experiment: biochemical
Experimental: as §1
(§9) concentrations (0 μM, 1 μM, and 100 μM, see Fig. S8). The selectivity profiles of […]
(§10) as described above. The inhibitory activities of these compounds against CphA (B2 MBL)13 and L1 (B3 MBL)14 were determined using meropenem and nitrocefin, […]
(§11) at 100 μM. […]
(§12) MBL; IMP, Imipenemase; NDM, New Delhi MBL; TEM-1: Temomeira-type 1 […]
as §7
(§13) negative controls. These were tested in same assay conditions but at 2mM instead of 100uM compound concentration. […]

L1 = L1 (Stenotrophomonas maltophilia, UniProt P52700); experiment: biochemical
Experimental: as §1, §9, §10, §11, §12, §7, §13

TEM-1 = TEM-1 (Escherichia coli, UniProt P62593); experiment: TEM-1 inhibition, selectivity profile (FC5 substrate); type: biochemical; details: Fig. 4
VIM-2 = biological target: T3, VIM-2 (Escherichia coli, UniProt Q5U7L7); experiment: biochemical; type: biochemical
T3 construct: made in house; host or cells: Escherichia coli
Experimental: as §1, §9
as described above. The inhibitory activities of these compounds against CphA (B2 […]
as §12, §7, §13

VIM-1 = VIM-1 (Pseudomonas aeruginosa, UniProt A0A0F7KYQ8); experiment: biochemical; details: n ≥ 3
apo-VIM-2 = apo-VIM-2 (Escherichia coli, UniProt Q5U7L7); type: binding; details: 50 μM apo enzyme, 50 μM compound, 50 mM Tris-D11 pH 7.5
Experimental: (§14) Except where noted, recombinant forms of NDM-1, VIM-2, SPM-1, IMP-1, and BcII MBLs were produced in Escherichia coli and assays were carried out as described […]
(§15) previously10. […]
(§16) Nuclear Magnetic Resonance (NMR) spectra were recorded using a Bruker AVIII 600 MHz NMR spectrometer equipped with a BB-19F/1H Prodigy N2 cryoprobe using 5 mm diameter NMR tubes (Norell). Typical experimental parameters for Carr-Purcell-Meiboom-Gill (CPMG) NMR spectroscopy were: total echo time, 40 ms; […]
(§17) The PROJECT-CPMG sequence
(§18) (90°x−[τ−180°y−τ−90°y−τ−180°y−τ]n−acq) was applied. 15 Water suppression was achieved by pre-saturation. Data were processed with Bruker 3.1 software. Prior to […]
(§19) Fourier transformation, data were multiplied with an exponential function with 0.5 Hz […]
(§20) line broadening. […]

di-Zn(II) VIM-2 = biological target: T4, di-Zn(II) VIM-2 (Escherichia coli, UniProt Q5U7L7); type: binding; details: 50 μM enzyme, 50 μM Zn(II), 50 μM compound, 50 mM Tris-D11 pH 7.5
T4 construct: made in house
Experimental: as §14, §15, §16, §17, §18, §19, §20

TEM-1, sequence (P62593 24-286 limits assumed): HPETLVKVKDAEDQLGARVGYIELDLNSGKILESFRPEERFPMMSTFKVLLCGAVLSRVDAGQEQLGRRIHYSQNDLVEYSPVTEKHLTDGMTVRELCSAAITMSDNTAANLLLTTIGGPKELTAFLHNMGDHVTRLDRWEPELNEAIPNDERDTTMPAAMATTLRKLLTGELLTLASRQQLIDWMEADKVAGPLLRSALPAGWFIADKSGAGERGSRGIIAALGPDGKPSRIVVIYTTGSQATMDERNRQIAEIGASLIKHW
T2 sequence (P04190 31-257): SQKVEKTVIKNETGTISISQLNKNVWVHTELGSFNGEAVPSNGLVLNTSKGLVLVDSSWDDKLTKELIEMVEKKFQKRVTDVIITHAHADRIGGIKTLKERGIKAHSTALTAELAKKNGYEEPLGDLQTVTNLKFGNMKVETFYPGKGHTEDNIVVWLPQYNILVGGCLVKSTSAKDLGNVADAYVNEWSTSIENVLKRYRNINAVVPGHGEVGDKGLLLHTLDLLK
SPM-1, sequence (Q8G9Q0 entry or part of it): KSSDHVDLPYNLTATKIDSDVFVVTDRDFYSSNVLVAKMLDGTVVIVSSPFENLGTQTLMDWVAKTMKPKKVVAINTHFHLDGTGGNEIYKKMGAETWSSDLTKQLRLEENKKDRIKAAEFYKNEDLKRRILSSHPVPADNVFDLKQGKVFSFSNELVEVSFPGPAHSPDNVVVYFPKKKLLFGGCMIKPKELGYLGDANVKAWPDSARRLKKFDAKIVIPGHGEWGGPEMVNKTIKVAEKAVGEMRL
T1 sequence (C7C422 29-270, looked up, species assumed): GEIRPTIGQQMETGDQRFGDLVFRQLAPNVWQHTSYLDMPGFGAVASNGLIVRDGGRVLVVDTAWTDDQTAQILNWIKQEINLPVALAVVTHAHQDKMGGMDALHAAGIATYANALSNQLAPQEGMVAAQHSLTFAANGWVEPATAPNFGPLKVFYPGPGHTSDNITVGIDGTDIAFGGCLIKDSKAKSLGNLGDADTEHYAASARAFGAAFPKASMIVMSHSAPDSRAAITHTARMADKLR
CphA, sequence (P26918 28-254): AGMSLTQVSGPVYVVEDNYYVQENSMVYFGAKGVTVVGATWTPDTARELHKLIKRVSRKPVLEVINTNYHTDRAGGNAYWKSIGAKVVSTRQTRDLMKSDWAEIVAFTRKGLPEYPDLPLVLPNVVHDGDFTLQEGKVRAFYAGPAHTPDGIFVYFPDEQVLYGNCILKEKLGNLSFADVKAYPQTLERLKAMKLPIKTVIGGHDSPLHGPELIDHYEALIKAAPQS
L1, sequence (P52700 34-290): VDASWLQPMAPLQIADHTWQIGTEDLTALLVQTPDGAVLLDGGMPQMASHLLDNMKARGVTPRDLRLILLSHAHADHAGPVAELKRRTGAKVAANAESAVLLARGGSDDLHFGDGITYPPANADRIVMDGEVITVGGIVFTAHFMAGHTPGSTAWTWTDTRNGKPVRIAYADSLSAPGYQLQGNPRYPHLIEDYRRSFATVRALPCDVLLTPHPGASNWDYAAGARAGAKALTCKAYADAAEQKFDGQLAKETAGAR

Row | Compound | IC50 (NDM-1) [µM] | IC50 (SPM-1) [µM] | IC50 (BcII) [µM] | IC50 (CphA) [µM] | IC50 (L1) [µM] | inhibition of class A serine β-lactamase TEM-1 (in words) (TEM-1) | differences between the inhibitory activity with or without excess Zn(II) (VIM-2; 0 μM, 1 μM and 100 μM Zn(II)) | IC50 (VIM-2; FC-5 based assay, n ≥ 3, read-out: IC50 (VIM-2)) [µM] | IC50 (VIM-1) [µM] | binding to apo-VIM-2 by 1H CPMG NMR (apo-VIM-2) | binding to di-Zn(II) VIM-2 by 1H CPMG NMR (di-Zn(II) VIM-2)
1 | O=C(O)c1cccc2c1C(=O)N(Cc1c(F)cccc1Cl)C2 [Compound 16] | > 400 | > 400 | > 400 | > 400 | > 400 | no inhibition was observed |  |  |  |  | 
2 | O=C(O)c1cccc2c1C(=O)N(c1cccc(C(F)(F)F)c1)C2 [Compound 17] | > 400 | > 400 | > 400 | > 400 | > 400 | no inhibition was observed | no obvious differences | 32.8 | > 400 | binding and bind | binding and bind
